Results on 4 compounds are retold here after ChEMBL document CHEMBL3352201, “P21-Activated Kinase 4 (PAK4) Inhibitors as Potential Cancer Therapy” (ACS Med Chem Lett, 2015).

In general, IC50 refers to the concentration that inhibits the measured activity by half.

In assay [1] the target is Serine/threonine-protein kinase PAK 1 (Homo sapiens, UniProt Q13153). Description: Inhibition of human recombinant PAK1 kinase domain assessed as phosphorylation of FRET peptide substrate at Ser/Thr20 by […] assay.
In assay [2] the target is Serine/threonine-protein kinase PAK 4 (Homo sapiens, UniProt O96013). Description: Inhibition of human recombinant PAK4 kinase domain assessed as phosphorylation of FRET peptide substrate at Ser/Thr20 by […] assay.
Sequence of Serine/threonine-protein kinase PAK 4 (O96013 whole entry, the tested form may be a part): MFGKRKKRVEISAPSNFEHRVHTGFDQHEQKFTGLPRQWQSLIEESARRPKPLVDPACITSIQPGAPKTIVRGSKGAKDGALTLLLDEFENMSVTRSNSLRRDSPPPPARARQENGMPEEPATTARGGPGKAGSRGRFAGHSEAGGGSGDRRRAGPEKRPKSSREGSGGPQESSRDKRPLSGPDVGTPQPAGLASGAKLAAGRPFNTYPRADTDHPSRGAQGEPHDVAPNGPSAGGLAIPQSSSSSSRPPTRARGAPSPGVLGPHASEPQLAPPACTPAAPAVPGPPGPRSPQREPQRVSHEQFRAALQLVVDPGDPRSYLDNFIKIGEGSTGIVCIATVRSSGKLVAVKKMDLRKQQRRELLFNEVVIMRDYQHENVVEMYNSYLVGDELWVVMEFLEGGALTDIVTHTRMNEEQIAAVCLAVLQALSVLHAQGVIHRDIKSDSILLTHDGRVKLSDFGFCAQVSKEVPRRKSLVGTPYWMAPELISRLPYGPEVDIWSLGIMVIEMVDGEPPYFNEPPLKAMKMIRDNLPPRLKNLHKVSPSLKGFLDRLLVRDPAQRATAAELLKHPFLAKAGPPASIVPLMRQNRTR

Sequence of Serine/threonine-protein kinase PAK 1 (Q13153 whole entry, the tested form may be a part): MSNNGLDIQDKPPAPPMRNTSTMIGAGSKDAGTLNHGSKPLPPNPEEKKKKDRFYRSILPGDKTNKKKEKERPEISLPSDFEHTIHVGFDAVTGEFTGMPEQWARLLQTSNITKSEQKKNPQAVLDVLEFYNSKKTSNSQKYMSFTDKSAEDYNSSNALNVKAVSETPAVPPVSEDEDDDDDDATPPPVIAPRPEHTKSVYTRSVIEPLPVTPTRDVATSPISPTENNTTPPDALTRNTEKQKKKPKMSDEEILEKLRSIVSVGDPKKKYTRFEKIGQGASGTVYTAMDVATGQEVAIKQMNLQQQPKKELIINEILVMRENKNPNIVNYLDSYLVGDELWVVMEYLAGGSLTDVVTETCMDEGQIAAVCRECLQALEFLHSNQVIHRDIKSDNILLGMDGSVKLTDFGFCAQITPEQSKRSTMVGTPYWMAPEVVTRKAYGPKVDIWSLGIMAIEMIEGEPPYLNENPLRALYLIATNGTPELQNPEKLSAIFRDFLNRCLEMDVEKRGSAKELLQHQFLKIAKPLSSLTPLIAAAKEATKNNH

Consider `CCNc1nc2ccc(C#C[C@@](C)(O)c3cc(C)on3)cc2n1-c1ncnc(N)n1`, for which the IC50 in assay [1] was > 4.5 µM; in assay [2], 0.0053 µM.

For the compound `CCNc1nc2ccc(C#CC(C)(C)O)cc2n1-c1ncnc(N)n1`, the half-inhibitory concentration (IC50) stood at 9.6 µM in assay [1] and 0.0655 µM in assay [2].

Take `CNc1nc2ccc(C#C[C@@](C)(O)c3cc(C)on3)cc2n1-c1ncnc(N)n1`: the figures for the IC50 in assay [1] and in assay [2] were > 4.5 µM and 0.0355 µM, respectively.

Consider `COCCNc1nc2ccc(C#CC3(O)CCCCC3)cc2n1-c1ccnc(N)n1`, for which the IC50 in assay [2] was 0.00477 µM.
